Molecules are shown by their SMILES.

The nature of this data set: Human HepG2 cell viability assay in 384 well format. To be noted: HepG2 cells, read-out: Inhibition. The format is toxicity, cell-based. Details: dose 125 nL, time 70.5 hour; concentration not given beside the values.
For the compound `Cc1noc([C@]23COC[C@H]2CN(S(=O)(=O)C2CC2)C3)n1`, the cytotoxicity at 70.5 h is -1.24%. Take `COCc1nnc(C(=O)N(C)Cc2cnc3ccccn23)o1`: the cytotoxicity at 70.5 h is -3.55%. With `COc1cc(F)ccc1CC(=O)N1CC[C@H]2C(=O)NCCO[C@H]2C1` the figure was 0.421%; with `CC(CNC(=O)N(C)Cc1ccco1)N1CCc2sccc2C1` (centres undefined), 4.72%. For the compound `CCC(O)CN1CCN(C(=O)c2ccnc(N(C)C)c2)CC1` (centres undefined), the cytotoxicity at 70.5 h was -11.3%.

With `COc1ncccc1C(=O)N1CC[C@H]2C[C@@H](c3nccs3)O[C@@H]2C1`, the cytotoxicity at 70.5 h is -23.1%. With `Cc1cccc(C(=O)N2CCN(C(=O)Cc3ccccn3)CC2)c1C` the figure was -2.92%; with `Cc1ccc(NC(=O)N2CCN(Cc3ccccn3)CC2)cc1Cl`, 30.4%; with `COc1ccc(OC)c(CCC(=O)Nc2cc(C)n[nH]2)c1`, -13.4%.

`NS(=O)(=O)c1ccc(CNCC(=O)NCc2ccc(Cl)cc2Cl)cc1`: the cytotoxicity at 70.5 h is -8.64%.

Regarding `COC(=O)CCC(=O)N(C/C=C/c1ccccc1)CCO`, the cytotoxicity at 70.5 h was 23.1%. Under `CSCCCN1CCCC1c1noc(C(C)C)n1` (centres undefined) stands -0.353%. As for `COc1ccc(CNCc2c(C(C)C)nn(C)c2OC)cn1`, the cytotoxicity at 70.5 h was -0.773%.

In the case of `CC(=O)NC1(C(=O)N(C)Cc2c(C)noc2C)CCCCC1`, the cytotoxicity at 70.5 h is 20.8%. Under `CC(C)c1ncc2c(n1)CN(Cc1nc(-c3ccoc3)no1)CC2` stands -16.7%; under `O=C(NCCc1csc(-c2ncccn2)n1)c1cnn2c1CCCC2`, -18.5%.

For the compound `COc1ccc(OC)c(C2CCN(CC(C)(C)N3CCOCC3)C2)c1` (centres undefined), the cytotoxicity at 70.5 h is -4.45%. Take `CC(C)CN1CCC2(CCN(Cc3nccs3)CC2)C1=O`: the cytotoxicity at 70.5 h stood at 0.492%.

Turning to `Cc1c[nH]c(CN(C)C(=O)C(C)(C)NC(=O)c2cccs2)n1`, the cytotoxicity at 70.5 h was -19.9%. Take `CCc1nc(CN2CCCN(c3nn4cc(C)nc4s3)CC2)no1`: the cytotoxicity at 70.5 h stood at 23.9%. Under `CCc1c(NCc2ccc(F)cc2)cnn1CC(C)C` stands -6.17%; under `Cc1ncsc1C(=O)NCCNC(=O)c1cccs1`, -3.7%. Under `O=C(c1cccc(NCCOc2ccc(F)cc2)c1)N1CCOCC1` stands 4.98%. Under `O=C(CCN1CCCC(CO)(CC2CC2)C1)NCc1cccc(Cl)c1` (centres undefined) stands -7.94%. For the compound `O=C([C@H]1C[C@H]2OCC[C@H]2N(Cc2cccnc2)C1)N1CCCO1`, the cytotoxicity at 70.5 h stood at 0.465%. For `CN(Cc1ccco1)C1CCC12CCN(C(=O)N1CCCC1)CC2` (centres undefined), the cytotoxicity at 70.5 h was -7.66%. For the compound `CNc1nc2c(c(C(=O)N3CCCC3)n1)CN(Cc1ccco1)CC2`, the cytotoxicity at 70.5 h is -3.76%. With `COc1cccc2ccn(CC(=O)NCC(C)C)c12` the figure was 11.2%; with `O=C(CNC(=O)C1CCCC1)NCc1cnn(-c2ccc(F)cc2F)c1`, -1.74%. Under `CCc1nc(C2CCCN2C(=O)c2ccc3c(c2)[nH]c(=O)n3C)no1` (centres undefined) stands 2.37%; under `CNC(=O)Cn1cc(C#N)c(=O)c2cc(Br)ccc21`, -3.12%; under `CCN(CC)C(=O)c1ccc(NC(=O)CNc2ccc(F)cc2Cl)cc1`, -6.34%.

Regarding `Cc1cnn(CC2CCCN2Cc2coc(-c3ccc(F)cc3)n2)c1` (centres undefined), the cytotoxicity at 70.5 h was -115%.

Take `COc1ccc(OCC(=O)NC(C)c2ccc(F)cc2)c(C(=O)O)c1` (centres undefined): the cytotoxicity at 70.5 h is -7%.

Turning to `Cc1ncc(-c2ccccn2)c(CCNC(=O)C2CCCC2)n1`, the cytotoxicity at 70.5 h was 14.1%.

With `COc1ccnc(N2CCN(C(=O)c3ccn(C)c(=O)c3)CC2)n1`, the cytotoxicity at 70.5 h was -1.1%. With `CN(C)c1cc2c(nn1)CCN(C(=O)C1CCCc3ccccc31)C2` (centres undefined) the figure was -8.02%; with `O=C(CN1CCCC(c2ccn[nH]2)C1)Nc1nc2c(s1)CCCC2` (centres undefined), 1.65%; with `c1ccc(OCCCn2ccnc2-c2cn(C3CCNCC3)nn2)cc1`, -4.27%.
